From patent publication US6153589A, “2,3-epoxy alcohols, acids and derivatives as anti retroviral chemotherapeutic agents” (The United States of America as represented by the …, priority 1992, dated 2000)
Like-named read-outs stand apart in the source and are kept apart here.

Experiments:
HIV1 IIIb = experiment: microbe, parasite or virus in culture; assay type: cell-based; details: Human immunodeficiency virus 1, IIIB; for viability at 10 µg/mL: 10 ug/ml; for viability at 0.1 µg/mL: 0.1 ug/ml; for viability at 56.7 µg/mL: 56.7 ug/ml; for viability at 48.4 µg/mL: 48.4 ug/ml; for viability at 2.4 µg/mL: 2.4 ug/ml
Source text: In-vitro Screening Anti--HIV XTT Assay
This assay, which is available to the public by the National Cancer Institute, utilizes colorimetry based on the production of a colored formazin from a tetrazolium salt by viable cells, to develop a safe, rapid and quantitative measure of HIV cytopathology. The assay is a modification of the previously described screening method for the detection of anti-tumor drug cytotoxicity (D. A. Scudiero, et al, Cancer Res, 48, 4827-4833 (1988)). It involves the plating of susceptible human "host" cells with and without virus in microculture plates, adding various concentrations of the respective test compounds, incubating the plates for seven days, during which time infected, non-drug treated control cells are largely or totally destroyed by the virus. The number of remaining viable cells are determined utilizing a calorimetric endpoint. A beneficial antiviral effect is indicated by a response % grater than the virus kill %, with 100% being optimal.
Anti-viral effect: Response (Viable Cells, determined by colorometric
absorbance of formazan dye produced) as % of uninfected controls
Virus Source: HIV1 IIIb; C, Virus producing H9 cells; V, cell free virus
Virus Kill: Infected untreated cells as % of uninfected cell controls
*: Culture redosed with compound after 3 days

HIV-2 protease = experiment: HIV protease cleavage of nonapeptide (HPLC); assay type: biochemical; details: 0.5 μl of 10 μg/μl inhibitor in DMSO per 10 μl reaction; pH 6.5, room temperature; pentapeptide product relative to DMSO control; sampled at ca. 16 and 40 hr (time not given)
Method: Activity Against HIV Protease
The assay for proteolyic activity is a modified version of that previously described by Copeland et al., Gene Anal. Tech., 5:109-115 (1988). For each assay to be performed 2 microliters of protease solution (ca. 100 ng) is added to 3 μg of nonapeptide (Val-Ser-Gln-Asn-Tyr-Pro-Ile-Val-Gln-NH2) in 8 μl of 200 mM sodium phosphate, 1 M NaCl, 5% glycerol, 0.25% Nonidet-40, at pH 6.5. This affords a stock solution containing 10 μl per number of reactions. This stock is aliquoted out in 10 μl portions to which 0.5 μl of DMSO (a control is run with each set of assays to compensate for minor experimental variations) or a DMSO solution containing 10 μg/μl of an inhibitor, i.e., any one of the compounds of the present invention, is added. The reactions were incubated at room temperature and 4 μl portions were removed at ca. 16 and 40 hr. intervals. HPLC analysis was performed on a 4.6×250 mm Lichrosorb RP-18 column eluted with a gradient of 0-40% acetonitrile in water (containing 0.05% TFA) over 30 min monitoring absorbance at 206 nm. Progress of the enzymatic cleavage was followed by monitoring the appearance of the pentapeptide (Val-Ser-Gln-Asn-Tyr-OH) cleavage product. The activity is expressed as the amount of the pentapeptide (Val-Ser-Gln-Asn-Tyr-OH) observed relative to the control reaction for that set of assays.
Inhibition of HIV-2 protease

porcine Renin = molecular target: T1, porcine Renin (Sus scrofa, UniProt A0A287APG1); experiment: Porcine Renin cleavage of porcine tetradecapeptide (HPLC); assay type: biochemical; details: 0.5 μl of 50 μg/μl inhibitor in DMSO in 50 μl; pH 6.00, room temperature, 70 min; relative to uninhibited control
T1 construct: purchased Sigma
T1 sequence (A0A287APG1 24-407): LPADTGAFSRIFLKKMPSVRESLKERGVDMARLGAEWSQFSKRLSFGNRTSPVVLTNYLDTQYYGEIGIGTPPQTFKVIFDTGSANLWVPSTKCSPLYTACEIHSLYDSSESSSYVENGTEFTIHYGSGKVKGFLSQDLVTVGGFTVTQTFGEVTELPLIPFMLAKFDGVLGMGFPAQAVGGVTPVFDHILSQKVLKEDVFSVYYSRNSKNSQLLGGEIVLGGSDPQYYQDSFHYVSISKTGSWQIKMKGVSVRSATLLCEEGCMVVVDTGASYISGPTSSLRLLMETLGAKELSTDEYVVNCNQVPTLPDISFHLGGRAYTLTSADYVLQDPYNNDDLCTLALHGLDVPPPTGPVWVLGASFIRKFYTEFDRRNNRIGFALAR
Source text: Renin Activity: Porcine Renin Cleavage of Porcine Tetradecapeptide
Proteolytic enzymes are ubiquitous in many living systems. Renin is an asparxyl protease found in mammals which is responsible for the regulation of blood pressure. Structural and functional similarities between Renin and retroviral proteases have been previously noted (Pearl, L. H., Taylor, W. R., (1987) Nature, 329, 351-354). Consequently, successful therapeutic inhibition of retroviral proteases depends on the ability of the inhibitor to inhibit the retroviral enzyme while having a greatly diminished effect on normally occurring enzymes like Renin. The failure to inhibit the desired enzyme selectively may have an adverse effect on normal biochemical functions. The similarity of Renin to retroviral proteases and its viral normal bodily function makes it an attractive system in which to examine inhibitory selectivity.
Renin activity was determined by a method similar to that described above for the HIV protease. A solution containing 0.37 m unit (0.5 μl of stock solution containing 0.75 m unit/μl) of porcine Renin (Sigma) was added to 5 μg of porcine angiotensinogen in 50 μl of 0.1 M citrate-phosphate buffer (pH 6.00) containing 0.25% NP-40. A DMSO solution containing the inhibitor (0.5 μl of a 50 μg/μl solution) was added and the reaction was allowed to incubate at room temperature for 70 min. The entire mixture was analyzed by HPLC chromatographic analysis was perforemd on a 4.6×250 mm Lichrosorb RP-18 column eluting with a gradient of 0-50% acetonitrile in 0.02 M KH2 Po4 (pH 4.7) over 30 min monitoring absorbance at 206 nm. Appearance of both the tetrapeptide and the decapeptide products may be monitored under these conditions. Enzyme activity is expressed as the amount of tetrapeptide produced relative to an uninhibited control, and are summarized in Table 3 below.

[1] = 168 h, read-out: Antiviral Effect (viable cells as % of uninfected controls), run 6, source V (cell free virus), virus kill 26.0%

For `OC[C@H]1O[C@H]1COCc1ccccc1` [Example 14, (2R-cis)-3-(Benzyloxymethyl)oxirane Methanol], which viability at 1 µg/mL (HIV1 IIIb; 168 h, read-out: Antiviral Effect (viable cells as % of uninfected controls), run 6, 1 ug/ml, source V (cell free virus), virus kill 50.0%) is on record?
Its viability at 1 µg/mL is 43.5%.

And the viability at 10 µg/mL (HIV1 IIIb; 168 h, read-out: Antiviral Effect (viable cells as % of uninfected controls), run 7, source V (cell free virus), virus kill 50.0%)?
The viability at 10 µg/mL was 49.5%.

And the viability at 0.1 µg/mL (HIV1 IIIb; 168 h, read-out: Antiviral Effect (viable cells as % of uninfected controls), run 8, source V (cell free virus), virus kill 16.0%)?
Its viability at 0.1 µg/mL is 17.7%.

And the viability at 0.1 µg/mL (HIV1 IIIb; 168 h, read-out: Antiviral Effect (viable cells as % of uninfected controls), run 9, source V (cell free virus), virus kill 16.0%)?
The viability at 0.1 µg/mL was 20.6%.

What about the viability at 4.1 µg/mL (HIV1 IIIb; 168 h, read-out: Antiviral Effect (viable cells as % of uninfected controls), run 10, 4.1 ug/ml, source V (cell free virus), virus kill 29.0%) of the same compound?
The viability at 4.1 µg/mL was 28.8%.

And the viability at 0.004 µg/mL (HIV1 IIIb; 168 h, read-out: Antiviral Effect (viable cells as % of uninfected controls), run 11*, 0.004 ug/ml, source V (cell free virus), virus kill 25.0%, culture redosed with compound after 3 days)?
The viability at 0.004 µg/mL was 30%.

What about the viability at 0.1 µg/mL (HIV1 IIIb; H9, 168 h, read-out: Antiviral Effect (viable cells as % of uninfected controls), run 1, source C (virus producing H9 cells), virus kill 18.0%) of the same compound?
The viability at 0.1 µg/mL was 21.9%.

What about the viability at 10 µg/mL (HIV1 IIIb; H9, 168 h, read-out: Antiviral Effect (viable cells as % of uninfected controls), run 2, source C (virus producing H9 cells), virus kill 17.0%) of the same compound?
The viability at 10 µg/mL was 53.5%.

What about the viability at 10 µg/mL (HIV1 IIIb; H9, 168 h, read-out: Antiviral Effect (viable cells as % of uninfected controls), run 3, source C (virus producing H9 cells), virus kill 17.0%) of the same compound?
The viability at 10 µg/mL was 61%.

And the viability at 0.1 µg/mL (HIV1 IIIb; H9, 168 h, read-out: Antiviral Effect (viable cells as % of uninfected controls), run 4, source C (virus producing H9 cells), virus kill 10.0%)?
The viability at 0.1 µg/mL was 12.1%.

What about the viability at 10 µg/mL (HIV1 IIIb; H9, 168 h, read-out: Antiviral Effect (viable cells as % of uninfected controls), run 5, source C (virus producing H9 cells), virus kill 10.0%) of the same compound?
Its viability at 10 µg/mL is 10.5%.

What about the “Percent Control Cleavage of Nonapeptide HIV-1 Cleavage Site Fragment” value (from here on “Percent Control Cleavage”) (HIV-2 protease) of the same compound?
The value was 78%.

With `CCCCCCCOC[C@H]1O[C@H]1CO` [Example 17] as the compound, how does the viability at 11.3 µg/mL (HIV1 IIIb; 168 h, read-out: Antiviral Effect (viable cells as % of uninfected controls), run 4, 11.3 ug/ml, source V (cell free virus), virus kill 40.0%) read?
Its viability at 11.3 µg/mL is 57.6%.

And the viability at 56.7 µg/mL (HIV1 IIIb; 168 h, read-out: Antiviral Effect (viable cells as % of uninfected controls), run 5, source V (cell free virus), virus kill 57.0%)?
The viability at 56.7 µg/mL was 102%.

What about the viability at 56.7 µg/mL (HIV1 IIIb; [1]) of the same compound?
Its viability at 56.7 µg/mL is 69.2%.

What about the viability at 1.97 µg/mL (HIV1 IIIb; 168 h, read-out: Antiviral Effect (viable cells as % of uninfected controls), run 7*, 1.97 ug/ml, source V (cell free virus), virus kill 28.0%, culture redosed with compound after 3 days) of the same compound?
The viability at 1.97 µg/mL was 15.8%.

And the viability at 113 µg/mL (HIV1 IIIb; H9, 168 h, read-out: Antiviral Effect (viable cells as % of uninfected controls), run 1, 113 ug/ml, source C (virus producing H9 cells), virus kill 10.0%)?
Its viability at 113 µg/mL is 31.1%.

And the viability at 56.7 µg/mL (HIV1 IIIb; H9, 168 h, read-out: Antiviral Effect (viable cells as % of uninfected controls), run 2, source C (virus producing H9 cells), virus kill 15.0%)?
The viability at 56.7 µg/mL was 53.7%.

And the viability at 56.7 µg/mL (HIV1 IIIb; H9, 168 h, read-out: Antiviral Effect (viable cells as % of uninfected controls), run 3, source C (virus producing H9 cells), virus kill 15.0%)?
The viability at 56.7 µg/mL was 83.1%.

And the “Percent Control Cleavage” value (HIV-2 protease)?
The value was 66%.

For `CCCCCCCOC[C@@H]1O[C@@H]1CO` [Example 18, (2R-cis)-3-(Heptyloxymethyl)oxirane Methanol], which viability at 9.65 µg/mL (HIV1 IIIb; 168 h, read-out: Antiviral Effect (viable cells as % of uninfected controls), run 4, 9.65 ug/ml, source V (cell free virus), virus kill 40.0%) is on record?
The viability at 9.65 µg/mL was 58.8%.

And the viability at 48.4 µg/mL (HIV1 IIIb; 168 h, read-out: Antiviral Effect (viable cells as % of uninfected controls), run 5, source V (cell free virus), virus kill 63.0%)?
Its viability at 48.4 µg/mL is 89.8%.

What about the viability at 48.4 µg/mL (HIV1 IIIb; [1]) of the same compound?
The viability at 48.4 µg/mL was 49%.

And the viability at 2.4 µg/mL (HIV1 IIIb; 168 h, read-out: Antiviral Effect (viable cells as % of uninfected controls), run 7, source V (cell free virus), virus kill 20.0%)?
Its viability at 2.4 µg/mL is 29.4%.

And the viability at 2.4 µg/mL (HIV1 IIIb; 168 h, read-out: Antiviral Effect (viable cells as % of uninfected controls), run 8*, source V (cell free virus), virus kill 25.0%, culture redosed with compound after 3 days)?
Its viability at 2.4 µg/mL is 40.2%.

What about the viability at 96.5 µg/mL (HIV1 IIIb; H9, 168 h, read-out: Antiviral Effect (viable cells as % of uninfected controls), run 1, 96.5 ug/ml, source C (virus producing H9 cells), virus kill 11.0%) of the same compound?
Its viability at 96.5 µg/mL is 38.6%.

What about the viability at 48.4 µg/mL (HIV1 IIIb; H9, 168 h, read-out: Antiviral Effect (viable cells as % of uninfected controls), run 2, source C (virus producing H9 cells), virus kill 16.0%) of the same compound?
The viability at 48.4 µg/mL was 30.7%.

And the viability at 4.84 µg/mL (HIV1 IIIb; H9, 168 h, read-out: Antiviral Effect (viable cells as % of uninfected controls), run 3, 4.84 ug/ml, source C (virus producing H9 cells), virus kill 10.0%)?
Its viability at 4.84 µg/mL is 17%.

And the “Percent Control Cleavage” value (HIV-2 protease)?
Its value is 71%.

For `CCCCCCCCCCC[C@@H]1O[C@H]1C(=O)O` [Example 39, (2R-trans)-3-Undecyloxiranecarboxylic Acid], which “Percent control (tetrapeptide produced)” value (porcine Renin) is on record?
Its value is 51%.
